Here are results for one molecule from ChEMBL document CHEMBL5584362, “Sucurchalasins A and B, Sulfur-Containing Heterodimers of a Cytochalasan and a Macrolide from the Endophytic Fungus Aspergillus spelaeus GDGJ-286” (J Nat Prod, 2024).

In brackets after ≈: the same amount, converted by molar mass. Activity calls are given as the source filed them.

The subject of the first test is A2780. The test is described as follows: Induction of apoptosis in human A2780 cells assessed as viable cells at 3 uM measured after 48 hrs by Annexin V-FITC/PI staining based FACS analysis (reference value: 92.6 to 92.8%). The note with it: read-out: Activity. It is filed as functional. Background: Flow cytometry measures light scatter and fluorescence of single cells or particles in a stream.
Turning to `CC1=C[C@@H]2/C=C(\C)CC[C@@H](O)C(=O)C[C@@H](S[C@H]3CCC[C@H](C)OC(=O)Cc4cc(O)cc(O)c4C(=O)C3)C(=O)[C@]23C(=O)N[C@@H](CC(C)C)[C@@H]3[C@@H]1C`, the viability at 3 µM was 87%.

The subject of the next test is Staphylococcus aureus. The test is described as follows: Antibacterial activity against Staphylococcus aureus at 25 ug/ml measured after 20 to 45 mins by broth microdilution method. The note with it: dose 25.0 µg/ml, time 20-45 min. It is filed as functional, organism-based. In general terms: In broth dilution the organism is exposed to a series of concentrations in liquid medium.
Consider `CC1=C[C@@H]2/C=C(\C)CC[C@@H](O)C(=O)C[C@@H](S[C@H]3CCC[C@H](C)OC(=O)Cc4cc(O)cc(O)c4C(=O)C3)C(=O)[C@]23C(=O)N[C@@H](CC(C)C)[C@@H]3[C@@H]1C`, for which the result was inactive.

The next test deals with Enterococcus faecalis. The test is described as follows: Antibacterial activity against Enterococcus faecalis measured after 20 to 45 mins by broth microdilution method. It is filed as functional. The note with it: time 20-45 min.
As for `CC1=C[C@@H]2/C=C(\C)CC[C@@H](O)C(=O)C[C@@H](S[C@H]3CCC[C@H](C)OC(=O)Cc4cc(O)cc(O)c4C(=O)C3)C(=O)[C@]23C(=O)N[C@@H](CC(C)C)[C@@H]3[C@@H]1C`, the minimal inhibitory concentration (MIC) (as a rule, the smallest concentration in the dilution series that meets the test's criterion for growth inhibition) was found to be 3.1 µg/mL (≈ 4.28 µM).

The test system of another test is A2780. In words: Induction of apoptosis in human A2780 cells assessed as late apoptotic cells at 9 uM measured after 48 hrs by Annexin V-FITC/PI staining based FACS analysis (reference value: 2.32 to 2.4%). Type of test: functional.
Settings: not given
`CC1=C[C@@H]2/C=C(\C)CC[C@@H](O)C(=O)C[C@@H](S[C@H]3CCC[C@H](C)OC(=O)Cc4cc(O)cc(O)c4C(=O)C3)C(=O)[C@]23C(=O)N[C@@H](CC(C)C)[C@@H]3[C@@H]1C`: the Activity was found to be 19.1%.

The next test has as its system HeLa. In words: Cytotoxicity against human HeLa cells by MTT assay.
Settings: not given
It is filed as functional, cell-based. On the technique in general: Tetrazolium dyes change colour on reduction, which living cells bring about.
In the case of `CC1=C[C@@H]2/C=C(\C)CC[C@@H](O)C(=O)C[C@@H](S[C@H]3CCC[C@H](C)OC(=O)Cc4cc(O)cc(O)c4C(=O)C3)C(=O)[C@]23C(=O)N[C@@H](CC(C)C)[C@@H]3[C@@H]1C`, the midpoint of inhibition, the IC50, lay at 23 µM.

Another test relates to Salmonella typhi. In words: Antibacterial activity against Salmonella typhi at 25 ug/ml measured after 20 to 45 mins by broth microdilution method. Type of test: functional, organism-based. The conditions noted are these: Salmonella enterica subsp. enterica serovar Typhi; dose 25.0 µg/ml, time 20-45 min.
Consider `CC1=C[C@@H]2/C=C(\C)CC[C@@H](O)C(=O)C[C@@H](S[C@H]3CCC[C@H](C)OC(=O)Cc4cc(O)cc(O)c4C(=O)C3)C(=O)[C@]23C(=O)N[C@@H](CC(C)C)[C@@H]3[C@@H]1C`, for which the outcome was inactive.

The subject of the next test is A2780. In words: Induction of apoptosis in human A2780 cells assessed as viable cells at 9 uM measured after 48 hrs by Annexin V-FITC/PI staining based FACS analysis (reference value: 92.6 to 92.8%). Type of test: functional. The note with it: read-out: Activity.
As for `CC1=C[C@@H]2/C=C(\C)CC[C@@H](O)C(=O)C[C@@H](S[C@H]3CCC[C@H](C)OC(=O)Cc4cc(O)cc(O)c4C(=O)C3)C(=O)[C@]23C(=O)N[C@@H](CC(C)C)[C@@H]3[C@@H]1C`, the viability at 9 µM was determined as 26%.

The next test deals with A2780. In words: Cytotoxicity against human A2780 cells by MTT assay. Type of test: functional, cell-based.
Settings: not given
As to `CC1=C[C@@H]2/C=C(\C)CC[C@@H](O)C(=O)C[C@@H](S[C@H]3CCC[C@H](C)OC(=O)Cc4cc(O)cc(O)c4C(=O)C3)C(=O)[C@]23C(=O)N[C@@H](CC(C)C)[C@@H]3[C@@H]1C`, the half-inhibitory concentration (IC50) (in general, the concentration that gives 50% inhibition) was found to be 8.3 µM.

The test system of a further test is A2780. The test is described as follows: Induction of apoptosis in human A2780 cells assessed as chromatin condensation at 1 to 9 uM measured after 48 hrs by Hoechst 33258 staining based assay. Type of test: functional, cell-based. The conditions noted are these: dose 1-9 µM.
Take `CC1=C[C@@H]2/C=C(\C)CC[C@@H](O)C(=O)C[C@@H](S[C@H]3CCC[C@H](C)OC(=O)Cc4cc(O)cc(O)c4C(=O)C3)C(=O)[C@]23C(=O)N[C@@H](CC(C)C)[C@@H]3[C@@H]1C`: the outcome was Active.

A further test has as its system A2780. The test is described as follows: Induction of apoptosis in human A2780 cells assessed as early apoptotic cells at 1 uM measured after 48 hrs by Annexin V-FITC/PI staining based FACS analysis (reference value: 1.68 to 1.9%). It is filed as functional.
Settings: not given
Turning to `CC1=C[C@@H]2/C=C(\C)CC[C@@H](O)C(=O)C[C@@H](S[C@H]3CCC[C@H](C)OC(=O)Cc4cc(O)cc(O)c4C(=O)C3)C(=O)[C@]23C(=O)N[C@@H](CC(C)C)[C@@H]3[C@@H]1C`, the Activity stood at 1.4%.

In another test the test system is SK-OV-3. The test is described as follows: Cytotoxicity against human SK-OV-3 cells by MTT assay. It is filed as functional, cell-based.
Settings: not given
`CC1=C[C@@H]2/C=C(\C)CC[C@@H](O)C(=O)C[C@@H](S[C@H]3CCC[C@H](C)OC(=O)Cc4cc(O)cc(O)c4C(=O)C3)C(=O)[C@]23C(=O)N[C@@H](CC(C)C)[C@@H]3[C@@H]1C` returned an IC50 of 20 µM.

The next test relates to HepG2. In words: Cytotoxicity against human HepG2 cells by MTT assay. Type of test: functional, cell-based.
Settings: not given
`CC1=C[C@@H]2/C=C(\C)CC[C@@H](O)C(=O)C[C@@H](S[C@H]3CCC[C@H](C)OC(=O)Cc4cc(O)cc(O)c4C(=O)C3)C(=O)[C@]23C(=O)N[C@@H](CC(C)C)[C@@H]3[C@@H]1C`: the IC50 was found to be 11 µM.

For another test, the system named is A2780. In words: Induction of apoptosis in human A2780 cells assessed as increase in early apoptotic cells measured after 48 hrs by Annexin V-FITC/PI staining based FACS analysis. It is filed as functional, cell-based. The note with it: dose 1-9 µM.
Turning to `CC1=C[C@@H]2/C=C(\C)CC[C@@H](O)C(=O)C[C@@H](S[C@H]3CCC[C@H](C)OC(=O)Cc4cc(O)cc(O)c4C(=O)C3)C(=O)[C@]23C(=O)N[C@@H](CC(C)C)[C@@H]3[C@@H]1C`, the Activity result is “Dose-Dependent Effect”.

The test system of another test is Escherichia coli. The test is described as follows: Antibacterial activity against Escherichia coli at 25 ug/ml measured after 20 to 45 mins by broth microdilution method. Type of test: functional, organism-based. The conditions noted are these: dose 25.0 µg/ml, time 20-45 min.
For `CC1=C[C@@H]2/C=C(\C)CC[C@@H](O)C(=O)C[C@@H](S[C@H]3CCC[C@H](C)OC(=O)Cc4cc(O)cc(O)c4C(=O)C3)C(=O)[C@]23C(=O)N[C@@H](CC(C)C)[C@@H]3[C@@H]1C`, the outcome was inactive.
